Assay results taken from ChEMBL document CHEMBL5291721, “A preclinical secondary pharmacology resource illuminates target-adverse drug reaction associations of marketed drugs” (Nat Commun, 2023).

How the values were obtained:
[1] = biological target: Neuronal acetylcholine receptor subunit alpha-4 (Homo sapiens, UniProt P43681)
[2] = biological target: D(3) dopamine receptor (Homo sapiens, UniProt P35462)
[3] = biological target: D(1A) dopamine receptor (Homo sapiens, UniProt P21728); type: functional, cell-based
[4] = biological target: Cannabinoid receptor 1 (Homo sapiens, UniProt P21554); type: functional, cell-based
[5] = biological target: T1, 5-hydroxytryptamine receptor 3A (Homo sapiens, UniProt P46098); type: functional
T1 sequence (P46098 whole entry): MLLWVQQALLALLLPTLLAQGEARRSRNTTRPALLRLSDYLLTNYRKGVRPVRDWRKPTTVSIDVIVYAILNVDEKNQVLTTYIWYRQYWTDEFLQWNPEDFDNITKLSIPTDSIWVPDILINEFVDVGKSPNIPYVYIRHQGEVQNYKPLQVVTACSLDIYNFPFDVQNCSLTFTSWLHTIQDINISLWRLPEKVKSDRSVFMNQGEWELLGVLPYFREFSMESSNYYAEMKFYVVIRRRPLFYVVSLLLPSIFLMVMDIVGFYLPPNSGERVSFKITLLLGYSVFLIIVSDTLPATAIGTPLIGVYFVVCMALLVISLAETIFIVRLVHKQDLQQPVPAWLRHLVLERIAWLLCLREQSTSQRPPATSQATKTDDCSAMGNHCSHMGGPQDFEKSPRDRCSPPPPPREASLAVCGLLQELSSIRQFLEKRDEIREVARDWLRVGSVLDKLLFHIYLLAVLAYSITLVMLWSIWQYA

[6] = biological target: Gamma-aminobutyric acid receptor subunit alpha-1 (Rattus norvegicus, UniProt P62813)
[7] = biological target: Histamine H2 receptor (Homo sapiens, UniProt P25021); type: functional, cell-based
[8] = biological target: T2, Gastrin/cholecystokinin type B receptor (Homo sapiens, UniProt P32239)
T2 sequence (P32239 whole entry): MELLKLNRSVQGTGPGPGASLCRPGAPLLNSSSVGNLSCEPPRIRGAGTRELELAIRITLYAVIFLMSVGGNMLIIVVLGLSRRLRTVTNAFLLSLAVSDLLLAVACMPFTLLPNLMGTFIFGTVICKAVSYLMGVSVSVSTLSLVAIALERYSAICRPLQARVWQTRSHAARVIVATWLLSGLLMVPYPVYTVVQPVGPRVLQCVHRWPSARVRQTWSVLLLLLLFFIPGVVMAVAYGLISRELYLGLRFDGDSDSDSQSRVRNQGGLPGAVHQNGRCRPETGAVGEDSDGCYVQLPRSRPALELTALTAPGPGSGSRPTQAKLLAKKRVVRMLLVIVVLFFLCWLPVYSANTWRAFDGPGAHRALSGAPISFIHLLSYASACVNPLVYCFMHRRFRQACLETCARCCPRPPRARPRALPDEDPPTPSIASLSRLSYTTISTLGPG

[9] = biological target: Kappa-type opioid receptor (Homo sapiens, UniProt P41145)
Also: assay procedure not described here.

Chain of Cannabinoid receptor 1 (P21554 whole entry): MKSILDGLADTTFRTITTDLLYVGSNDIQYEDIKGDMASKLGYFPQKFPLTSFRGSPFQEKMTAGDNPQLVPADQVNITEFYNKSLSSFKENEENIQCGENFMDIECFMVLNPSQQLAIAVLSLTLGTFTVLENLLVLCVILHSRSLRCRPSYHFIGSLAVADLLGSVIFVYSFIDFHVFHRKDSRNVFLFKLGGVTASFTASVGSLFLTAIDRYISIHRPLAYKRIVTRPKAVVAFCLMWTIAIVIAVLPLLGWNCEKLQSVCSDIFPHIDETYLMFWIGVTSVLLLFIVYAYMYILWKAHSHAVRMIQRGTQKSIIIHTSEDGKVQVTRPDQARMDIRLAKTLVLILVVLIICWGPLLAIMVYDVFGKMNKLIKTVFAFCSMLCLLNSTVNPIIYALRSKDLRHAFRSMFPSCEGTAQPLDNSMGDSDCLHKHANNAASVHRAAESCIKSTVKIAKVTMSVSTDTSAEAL
Chain of D(3) dopamine receptor (P35462 whole entry): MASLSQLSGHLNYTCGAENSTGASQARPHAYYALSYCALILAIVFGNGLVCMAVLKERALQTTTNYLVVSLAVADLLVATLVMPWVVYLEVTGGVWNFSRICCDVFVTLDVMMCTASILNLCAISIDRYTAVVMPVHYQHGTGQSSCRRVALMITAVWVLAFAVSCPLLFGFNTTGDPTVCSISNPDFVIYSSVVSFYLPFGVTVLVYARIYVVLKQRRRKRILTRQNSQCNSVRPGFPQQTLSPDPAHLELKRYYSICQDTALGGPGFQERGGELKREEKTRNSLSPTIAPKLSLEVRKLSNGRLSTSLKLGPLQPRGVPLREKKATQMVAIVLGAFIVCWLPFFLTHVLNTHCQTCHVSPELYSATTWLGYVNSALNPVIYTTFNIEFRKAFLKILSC
Chain of Histamine H2 receptor (P25021 whole entry): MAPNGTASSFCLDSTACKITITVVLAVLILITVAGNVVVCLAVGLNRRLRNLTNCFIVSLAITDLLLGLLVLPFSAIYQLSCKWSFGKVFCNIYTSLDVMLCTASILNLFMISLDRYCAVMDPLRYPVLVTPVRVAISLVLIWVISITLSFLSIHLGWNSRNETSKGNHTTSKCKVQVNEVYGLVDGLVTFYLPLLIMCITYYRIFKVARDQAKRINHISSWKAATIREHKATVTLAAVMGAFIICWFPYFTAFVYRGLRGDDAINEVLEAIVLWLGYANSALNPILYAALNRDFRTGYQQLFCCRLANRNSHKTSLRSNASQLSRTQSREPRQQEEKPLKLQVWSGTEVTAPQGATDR
Chain of Kappa-type opioid receptor (P41145 whole entry): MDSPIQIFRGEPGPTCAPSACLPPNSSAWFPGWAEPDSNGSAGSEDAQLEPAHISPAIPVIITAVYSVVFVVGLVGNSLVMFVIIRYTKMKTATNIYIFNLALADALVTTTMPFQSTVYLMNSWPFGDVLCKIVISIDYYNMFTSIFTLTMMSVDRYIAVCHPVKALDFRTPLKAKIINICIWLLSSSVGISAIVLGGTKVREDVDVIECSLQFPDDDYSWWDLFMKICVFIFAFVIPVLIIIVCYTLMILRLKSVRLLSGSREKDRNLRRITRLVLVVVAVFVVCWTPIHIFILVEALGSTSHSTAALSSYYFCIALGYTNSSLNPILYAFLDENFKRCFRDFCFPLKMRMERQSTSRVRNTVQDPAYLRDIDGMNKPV
Chain of D(1A) dopamine receptor (P21728 whole entry): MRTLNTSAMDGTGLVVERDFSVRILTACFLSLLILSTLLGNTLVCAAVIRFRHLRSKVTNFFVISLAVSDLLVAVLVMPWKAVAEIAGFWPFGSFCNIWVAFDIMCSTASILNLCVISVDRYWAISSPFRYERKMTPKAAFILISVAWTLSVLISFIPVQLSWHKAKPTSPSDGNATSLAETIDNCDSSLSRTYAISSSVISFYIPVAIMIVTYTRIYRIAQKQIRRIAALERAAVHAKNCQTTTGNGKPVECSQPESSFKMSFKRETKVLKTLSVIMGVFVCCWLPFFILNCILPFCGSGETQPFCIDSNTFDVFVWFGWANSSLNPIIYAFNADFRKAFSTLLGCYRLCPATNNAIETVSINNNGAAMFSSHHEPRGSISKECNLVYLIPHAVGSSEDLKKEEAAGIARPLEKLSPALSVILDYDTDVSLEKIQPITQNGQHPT
Chain of Gamma-aminobutyric acid receptor subunit alpha-1 (P62813 whole entry): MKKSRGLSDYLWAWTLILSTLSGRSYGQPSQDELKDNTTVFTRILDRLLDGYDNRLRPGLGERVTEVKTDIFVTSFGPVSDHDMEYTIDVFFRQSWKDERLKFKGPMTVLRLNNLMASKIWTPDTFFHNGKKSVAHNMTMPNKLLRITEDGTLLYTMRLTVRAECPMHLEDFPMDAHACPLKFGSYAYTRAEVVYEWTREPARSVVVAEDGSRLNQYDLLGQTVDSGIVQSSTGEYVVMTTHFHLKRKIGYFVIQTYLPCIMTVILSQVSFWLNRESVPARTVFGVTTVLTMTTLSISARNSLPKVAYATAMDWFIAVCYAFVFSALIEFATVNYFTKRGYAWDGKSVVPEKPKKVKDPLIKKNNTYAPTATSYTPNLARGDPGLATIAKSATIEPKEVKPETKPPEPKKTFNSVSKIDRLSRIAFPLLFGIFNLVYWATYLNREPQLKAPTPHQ
Chain of Neuronal acetylcholine receptor subunit alpha-4 (P43681 whole entry): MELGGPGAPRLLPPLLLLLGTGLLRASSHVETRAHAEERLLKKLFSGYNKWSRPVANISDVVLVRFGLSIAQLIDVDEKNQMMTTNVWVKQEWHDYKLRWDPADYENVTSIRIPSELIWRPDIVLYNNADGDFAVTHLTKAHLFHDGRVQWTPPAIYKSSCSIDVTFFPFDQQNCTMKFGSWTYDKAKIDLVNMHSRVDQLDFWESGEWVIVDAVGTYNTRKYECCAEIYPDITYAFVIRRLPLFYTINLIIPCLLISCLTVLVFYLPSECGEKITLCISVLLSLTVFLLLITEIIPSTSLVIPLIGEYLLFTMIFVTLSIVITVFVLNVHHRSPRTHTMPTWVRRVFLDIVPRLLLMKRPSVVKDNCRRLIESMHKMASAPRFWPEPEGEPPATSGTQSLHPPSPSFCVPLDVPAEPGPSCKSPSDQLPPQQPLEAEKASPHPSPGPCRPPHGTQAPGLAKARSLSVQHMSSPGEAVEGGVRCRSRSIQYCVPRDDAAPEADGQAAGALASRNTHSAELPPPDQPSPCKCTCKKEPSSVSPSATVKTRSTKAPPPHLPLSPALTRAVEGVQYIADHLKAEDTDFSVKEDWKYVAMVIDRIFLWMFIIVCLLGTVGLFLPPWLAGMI

| AC50 [1] | AC50 [2] | AC50 [3] | AC50 [4] | AC50 [5] | AC50 [6] | AC50 [7] | AC50 [8] | AC50 [9] | SMILES |
| --- | --- | --- | --- | --- | --- | --- | --- | --- | --- |
| 28 µM |  | > 30 µM | > 30 µM | 13 µM | > 30 µM | > 30 µM | > 30 µM | 28 µM | CC(/C=C1\SC(=S)N(CC(=O)O)C1=O)=C\c1ccccc1 |
| > 30 µM | > 30 µM | > 30 µM |  | > 30 µM | > 30 µM | > 30 µM | > 30 µM | > 30 µM | CC1(C)S[C@@H]2[C@H](NC(=O)[C@H](N)c3ccc(O)cc3)C(=O)N2[C@H]1C(=O)O [AMOXICILLIN] |
| > 10 µM | > 30 µM | > 10 µM | > 30 µM | > 30 µM | > 10 µM | > 10 µM | > 30 µM | > 10 µM | O=C1CN2Cc3c(ccc(Cl)c3Cl)N=C2N1 [ANAGRELIDE] |
| > 30 µM | 26 µM | > 30 µM | > 30 µM |  |  | > 30 µM | > 30 µM | 1.8 µM | CNCC[C@@H](Oc1ccccc1C)c1ccccc1 [ATOMOXETINE] |
| > 30 µM | > 30 µM | > 30 µM | > 30 µM | > 30 µM | > 10 µM | > 10 µM | > 30 µM | > 10 µM | CCc1oc2ccccc2c1C(=O)c1cc(Br)c(O)c(Br)c1 [BENZBROMARONE] |
| > 30 µM | > 30 µM | > 30 µM | > 30 µM | > 30 µM |  | > 30 µM | > 30 µM | > 30 µM | CO/N=C(\C(=O)N[C@@H]1C(=O)N2C(C(=O)O)=C(COC(N)=O)CS[C@H]12)c1ccco1 [CEFUROXIME] |
| > 30 µM | 3.2 µM | > 10 µM | > 30 µM | 5.9 µM | > 10 µM | > 10 µM |  | 3.99 µM | [H]/N=C(\N/C(=N/[H])NCCCCCCNC(=N)NC(=N)Nc1ccc(Cl)cc1)Nc1ccc(Cl)cc1 [CHLORHEXIDINE] |
| > 10 µM | > 10 µM | > 10 µM | > 30 µM | > 30 µM | > 10 µM | 0.39 µM | > 30 µM |  | Clc1cccc(Cl)c1N=C1NCCN1 [CLONIDINE] |
| > 30 µM | > 30 µM | 19 µM | > 30 µM | > 30 µM | > 30 µM | > 30 µM | > 30 µM | 14.9 µM | COC(=O)[C@H](c1ccccc1Cl)N1CCc2sccc2C1 [CLOPIDOGREL] |
| > 30 µM | > 30 µM | > 30 µM | > 30 µM | > 30 µM |  |  |  |  | CC1(C)O[C@@H]2C[C@H]3[C@@H]4C[C@H](F)C5=CC(=O)C=C[C@]5(C)[C@H]4[C@@H](O)C[C@]3(C)[C@]2(C(=O)CO)O1 [FLUNISOLIDE] |

| SMILES | AC50 [1] | AC50 [2] | AC50 [3] | AC50 [4] | AC50 [5] | AC50 [6] | AC50 [7] | AC50 [8] | AC50 [9] |
| --- | --- | --- | --- | --- | --- | --- | --- | --- | --- |
| CC(=N)N1CC[C@H](SC2=C(C(=O)O)N3C(=O)[C@H]([C@@H](C)O)[C@H]3C2)C1 | 170 µM | > 300 µM | > 300 µM | > 300 µM | > 300 µM |  |  |  |  |
| C=C(C)[C@@H]1CCC(C)=C[C@H]1c1c(O)cc(CCCCC)cc1O [CANNABIDIOL] | > 30 µM | > 30 µM | > 30 µM |  | > 30 µM |  |  |  |  |
| CN1C[C@H](C(=O)N[C@]2(C)O[C@@]3(O)[C@@H]4CCCN4C(=O)[C@H](Cc4ccccc4)N3C2=O)C[C@@H]2c3cccc4[nH]cc(c34)C[C@H]21 [DIHYDROERGOTAMINE] | > 10 µM | 0.055 µM | 0.358 µM | > 30 µM | > 30 µM | > 10 µM | 0.62 µM | > 30 µM | > 10 µM |
| CNCC[C@H](Oc1cccc2ccccc12)c1cccs1 [DULOXETINE] | > 10 µM | 4.6 µM | > 10 µM | > 30 µM | 14 µM | > 10 µM | > 10 µM | > 30 µM |  |
